According to article PMC10066365, “Nemacol is a small molecule inhibitor of C. elegans vesicular acetylcholine transporter with anthelmintic potential” (Nature Communications, 2023):
Several values for one entry are separate records, joined by “and”; a condition that tells them apart may be missing. Identical values can stand only once. Like-named read-outs stand apart in the source and are kept apart here.

How the values were obtained:
[1] = system: Haemonchus contortus; test: Haemonchus contortus L3 Migration Trap Assay (motility, 24 h exposure); conditions: for efficacy: hc weybridge, motilityTrap24hNoWash, 24 h, single wells
[2] = molecular target: T1, rat VAChT (Rattus norvegicus, UniProt Q62666); test: [3H]Vesamicol competitive radioligand binding, PC12 cells expressing ratVAChT; conditions: [3H]Vesamicol binding
T1 construct: expressed in transfected cells; host or cells: rat PC12 (PC12 A123.7) cells, stably transfected; shared by Dr. Ali Roghani (Texas Tech University)
T1 sequence (Q62666 1-530): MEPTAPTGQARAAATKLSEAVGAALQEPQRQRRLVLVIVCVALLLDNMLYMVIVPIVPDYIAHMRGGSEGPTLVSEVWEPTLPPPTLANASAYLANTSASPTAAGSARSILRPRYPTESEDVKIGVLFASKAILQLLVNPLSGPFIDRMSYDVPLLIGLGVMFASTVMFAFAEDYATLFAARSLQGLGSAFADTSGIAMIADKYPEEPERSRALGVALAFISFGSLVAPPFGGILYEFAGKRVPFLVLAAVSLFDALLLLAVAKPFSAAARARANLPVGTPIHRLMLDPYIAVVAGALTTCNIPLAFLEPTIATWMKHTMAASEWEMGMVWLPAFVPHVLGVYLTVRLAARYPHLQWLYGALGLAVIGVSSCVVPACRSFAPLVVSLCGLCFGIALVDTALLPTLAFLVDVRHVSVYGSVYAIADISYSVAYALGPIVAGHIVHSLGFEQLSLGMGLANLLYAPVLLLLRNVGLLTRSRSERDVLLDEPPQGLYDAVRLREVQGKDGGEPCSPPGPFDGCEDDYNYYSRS

[3] = system: Pristionchus pacificus; test: Pristionchus pacificus motor disruption dose-response on solid media, 1 h; conditions: for EC50: Pristionchus pacificus, 1 h, read-out: P. pacificus motor disruption EC50; for mean % any phene: any phenotype (coiled, jerky-Unc or paralyzed) at one hour; for mean % any phene / mean % any phene (coiled, jerky-Unc or paralyzed): mean of three biological replicates; for mean % any phene (coiled, jerky-Unc or paralyzed): Pristionchus pacificus young adults
[4] = system: C. elegans; test: C. elegans motor phenotype scoring on solid media (Punc/jerky-unc, coiled, paralyzed), wild-type young adults; format: in vivo, Caenorhabditis elegans; conditions: for atypical locomotion (number of animals) / coiled (number of animals) / no phene (number of animals) / paralyzed (number of animals) / any phene: mean % fraction of young adults exhibiting any phenotype (coiled, jerky-Unc or paralyzed) / any phene (mean % fraction of young adults exhibiting any phenotype: coiled, jerky-Unc or paralyzed): one hour; for atypical locomotion (number of animals) / coiled (number of animals) / no phene (number of animals) / paralyzed (number of animals): young adults, 20 animals per trial, single technical replicate; for any phene: mean % fraction of young adults exhibiting any phenotype (coiled, jerky-Unc or paralyzed) / any phene (mean % fraction of young adults exhibiting any phenotype: coiled, jerky-Unc or paralyzed): mean of three biological replicates; for EC50: Caenorhabditis elegans, any motor phenotype after 1 h on solid media, ± 95% CI, read-out: C. elegans - motor disruption EC50
[5] = system: Dirofilaria immitis L3/L4; test: Dirofilaria immitis L3/L4 motility assay (DiroImager, 72 h); conditions: Dirofilaria immitis L4
[6] = system: Dirofilaria immitis microfilariae; test: Dirofilaria immitis microfilariae immobility assay (DiroImager, 72 h); conditions: Dirofilaria immitis microfilariae
How it was run: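 Motility read after 72 h drug exposure with an image-based high-throughput plate imager, 1% DMSO medium serving as negative control. Missouri-isolate microfilariae, roughly 250 per well, freshly purified and cultured in supplemented RPMI 1640.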

[7] = PC12, experiment 1, read-out: expt 1 Ki (M) vs. rat VAChT (PC12)
[8] = PC12, experiment 2, read-out: expt 2 Ki (M) vs. rat VAChT (PC12)
[9] = rat VAChT (PC12), mean of 2-3 experiments, read-out: mean Ki
[10] = conc 3.75, count of 20 animals per trial, one hour
[11] = conc 15, count of 20 animals per trial, one hour
[12] = conc 60, count of 20 animals per trial, one hour

`CC1CCC(N2CCN(c3ccc(F)cc3)CC2)CC1` (stereo not drawn) [Nemacol-53] was tested, and the “effect on Ivermectin's ability to paralyze H. contortus” value ([1]; EC30 concentration of Nemacol-53 (26.4 µM), P = 0.002) was “significantly enhance”, the EC30 ([1]; H. contortus L3 motility) was 26000 nM and the EC50 ([1]; Haemonchus contortus) was 40600 nM. For the same compound, the Ki [2, 7] was 5.54e-07 M, the Ki [2, 8] was 1.04e-06 M and the Ki [2, 9] was 7.98e-07 M. For the same compound, the EC50 [3] was 12800 ± 1200 nM, the “mean % any phene” value ([3]; conc 3.75) was 8.333% and the “rep 1 atypical locomotion” value [3, 10] was 2 and 3. The “rep 1 coiled” value [3, 10] was 0, the “rep 1 no phene” value [3, 10] was 18 and 17 and the “rep 1 paralyzed” value [3, 10] was 0. The “rep 2 atypical locomotion” value [3, 10] was 1, the “rep 2 coiled” value [3, 10] was 0 and the “rep 2 no phene” value [3, 10] was 19. For the same compound, the “rep 2 paralyzed” value [3, 10] was 0, the “rep 3 atypical locomotion” value [3, 10] was 2 and 1 and the “rep 3 coiled” value [3, 10] was 0. For the same compound, the “rep 3 no phene” value [3, 10] was 18 and 19, the “rep 3 paralyzed” value [3, 10] was 0 and the “mean % any phene” value ([3]; conc 15) was 57.5%. The “rep 1 atypical locomotion” value [3, 11] was 12 and 13, the “rep 1 no phene” value [3, 11] was 7 and the “rep 1 paralyzed” value [3, 11] was 0. The “rep 2 paralyzed” value [3, 11] was 0, the “rep 3 coiled” value [3, 11] was 2 and the “mean % any phene” value ([3]; conc 60) was 100%. The “rep 1 atypical locomotion” value [3, 12] was 0, the “rep 1 coiled” value [3, 12] was 8 and 13 and the “rep 1 no phene” value [3, 12] was 0. For the same compound, the “rep 1 paralyzed” value [3, 12] was 12 and 7, the “rep 2 coiled” value [3, 12] was 9 and 14 and the “rep 2 no phene” value [3, 12] was 0. For the same compound, the “rep 2 paralyzed” value [3, 12] was 10 and 6, the “rep 3 atypical locomotion” value [3, 12] was 2 and 1 and the “rep 3 coiled” value [3, 12] was 7 and 12. For the same compound, the “rep 3 no phene” value [3, 12] was 0, the “rep 3 paralyzed” value [3, 12] was 11 and 7 and the “atypical locomotion (number of animals)” value ([4]; 3.75uM) was 6 and 2 and 1 and 3 and 13 and 8. For the same compound, the “coiled (number of animals)” value ([4]; 3.75uM) was 0, the “no phene (number of animals)” value ([4]; 3.75uM) was 14 and 18 and 19 and 17 and 7 and 12 and the “paralyzed (number of animals)” value ([4]; 3.75uM) was 0. For the same compound, the “any phene: mean % fraction of young adults exhibiting any phenotype (coiled, jerky-Unc or paralyzed)” value ([4]; 3.75uM) was 27.5%, the “atypical locomotion (number of animals)” value ([4]; 15uM) was 3 and 9 and 11 and 13 and 18 and 17 and the “coiled (number of animals)” value ([4]; 15uM) was 0 and 1 and 4 and 3 and 2. The “no phene (number of animals)” value ([4]; 15uM) was 4 and 2 and 0 and 3, the “paralyzed (number of animals)” value ([4]; 15uM) was 13 and 8 and 5 and 4 and 0 and the “any phene: mean % fraction of young adults exhibiting any phenotype (coiled, jerky-Unc or paralyzed)” value ([4]; 15uM) was 92.5%. The “atypical locomotion (number of animals)” value ([4]; 60uM) was 0 and 2, the “coiled (number of animals)” value ([4]; 60uM) was 13 and 15 and 9 and 12 and 16 and the “no phene (number of animals)” value ([4]; 60uM) was 0. The “paralyzed (number of animals)” value ([4]; 60uM) was 7 and 5 and 9 and 6 and 2, the EC50 [4] was 5500 ± 1600 nM and the “% effect (motility), DIROIM L4” value ([5]; 10 µM) was 5%. For the same compound, the “% effect (motility), DIROIM L4” value ([5]; 50 µM) was 20%, the “% effect (motility), DIROIM MF” value ([6]; 0.016 µM) was 0% and the “% effect (motility), DIROIM MF” value ([6]; 0.08 µM) was 0%. For the same compound, the “% effect (motility), DIROIM MF” value ([6]; 0.4 µM) was 0%, the “% effect (motility), DIROIM MF” value ([6]; 2 µM) was 0% and the “% effect (motility), DIROIM MF” value ([6]; 10 µM) was 0%.
With `CC1CCC(N2CCN(c3ccc(F)cc3)CC2)CC1` (stereo not drawn) [Nemacol_53] the efficacy ([1]; dose 0.00488281 µM) was 0, the efficacy ([1]; dose 0.0195312 µM) was 0 and the efficacy ([1]; dose 80 µM) was 90.3789 and 92.5148 and 88.1185.
With `O=[N+]([O-])c1ccc(N2CCN(CC3CCCCC3)CC2)cc1` [Nemacol_1] the efficacy ([1]; dose 0.0195312 µM) was 0, the efficacy ([1]; dose 0.078125 µM) was 0 and the efficacy ([1]; dose 0.3125 µM) was 0. The efficacy ([1]; dose 1.25 µM) was 0 and the efficacy ([1]; dose 5 µM) was 0.
`Cc1ccc(N2CCN(C3CCC(C)C3)CC2)cc1` (stereo not drawn) [Nemacol-41] was tested, and the Ki [2, 7] was 4.82e-07 M, the Ki [2, 8] was 3.76e-07 M and the Ki [2, 9] was 4.29e-07 M. The “mean % any phene (coiled, jerky-Unc or paralyzed)” value ([3]; conc 3.75, observed at one hour) was 9.167%, the “mean % any phene (coiled, jerky-Unc or paralyzed)” value ([3]; conc 15, observed at one hour) was 67.5% and the “mean % any phene (coiled, jerky-Unc or paralyzed)” value ([3]; conc 60, observed at one hour) was 100%. For the same compound, the EC50 [3] was 10700 ± 1200 nM, the “any phene (mean % fraction of young adults exhibiting any phenotype: coiled, jerky-Unc or paralyzed)” value ([4]; 3.75uM, third c14 line of each analog) was 58.3333% and the “any phene (mean % fraction of young adults exhibiting any phenotype: coiled, jerky-Unc or paralyzed)” value ([4]; 15uM, second c14 line of each analog) was 98.3333%. The “any phene (mean % fraction of young adults exhibiting any phenotype: coiled, jerky-Unc or paralyzed)” value ([4]; 60uM, first c14 line of each analog) was 100%, the EC50 [4] was 3300 ± 1400 nM and the “% effect (motility), DIROIM L4” value ([5]; 2 µM) was 5%. For the same compound, the “% effect (motility), DIROIM L4” value ([5]; 10 µM) was 5%, the “% effect (motility), DIROIM L4” value ([5]; 50 µM) was 20% and the “% effect (motility), DIROIM MF” value ([6]; 0.016 µM) was 0%. The “% effect (motility), DIROIM MF” value ([6]; 0.08 µM) was 0%, the “% effect (motility), DIROIM MF” value ([6]; 0.4 µM) was 0% and the “% effect (motility), DIROIM MF” value ([6]; 2 µM) was 0%. The “% effect (motility), DIROIM MF” value ([6]; 10 µM) was 0%.
`c1ccc(N2CCN(CC3CCCC3)CC2)cc1` [Nemacol_62] gave an efficacy ([1]; dose 5 µM) of 0, an efficacy ([1]; dose 20 µM) of 0 and an efficacy ([1]; dose 80 µM) of 0.
